These results are taken from patent US20160101076A1, “Use of Sumoylation Inhibitors for Treating Cancer” (priority 2013, published 2016).

Test [1] relates to undifferentiated thyroid cell line 8505c. The experiment in a line: CD44 Western blot in 8505c thyroid carcinoma. Type of test: cell-based. Conditions: 96 h treatment, FIG. 19. How it is done:
FIG. 19: Western blot, CD44 downregulation, 8505c thyroid carcinoma was treated with ginkgolic and anacardic acids, 96 h.
(§1) Similar downregulation of stem cell marker CD44 was determined in pancreatic carcinoma Panc-1 cell line (FIG. 18) and undifferentiated thyroid cell line 8505c (FIG. 19) after 96 h treatment with SUMO inhibitors anacardic and ginkgolic acids. • Woodfield, G. W., Horan, A. D., Chen, Y. & Weigel, R. J. TFAP2C controls hormone response in breast cancer cells through multiple pathways of estrogen signaling. Cancer Res 67, 8439-8443 (2007). • Woodfield, G. W., Chen, Y., Bair, T. B., Domann, F. E. & Weigel, R. J. Identification of primary gene targets of TFAP2C in hormone responsive breast carcinoma cells. Genes Chromosomes Cancer 49, 948-962, doi:10.1002/gcc.20807 (2010). • Tan, S. K. et al. AP-2gamma regulates oestrogen receptor-mediated longrange chromatin interaction and gene transcription. Embo J 30, 2569-2581, doi:10.1038/emboj.2011.151 (2011). • Sorlie, T. et al. Gene expression patterns of breast carcinomas distinguish tumor subclasses with clinical implications. Proc Natl Acad Sci USA 98, 10869-10874. (2001). • Kao, J. et al. Molecular profiling of breast cancer cell lines defines relevant tumor models and provides a resource for cancer gene discovery. […]

For a further test, the system named is BT-20 cells. Briefly: CD44 Western blot and CD44+/CD24-/low FACS in BT-20 cells. In kind it is cell-based, human. The following applies: for ability to repress CD44 expression with knockdown of TFAP2A: BT20 cells, TFAP2A siRNA, Western blot FIG. 6C; for CD44+/CD24-/low population by FACS analysis / CD44 expression by Western blot: BT-20 cells, FIG. 6A, 10 μM, 2-4 days. As to the method:
The human breast cancer cell lines (MCF-7, SKBR-3, BT-20, BT-549, MCF-10A) were obtained from American Type Culture Collection. sKD-C cells were subcloned from parental MCF-7 cells with stable knockdown of TFAP2C as described (Cyr et al., 2014). ER<-positive tumors and the basal cancer tumor were obtained from surgical resection specimens. Cell suspensions were prepared with gentle collagenase/hyaluronidase (Stemcells) (Ponti et al., 2005). A new cell line was established from the basal tumor cells, called IOWA-1T (manuscript in preparation).
Western blots were performed as previously described (Cyr et al., 2014; Kulak et al., 2013). For immunoprecipitations anti-TFAP2A, anti-GFP antibody (Life Technologies) or IgG (#sc-2025, Santa Cruz Biotechnology) were cross-linked with Dynabeads protein A (Life Technologies). MCF7 protein was incubated with Dynabeads protein A-Abs complex, protein complexes were washed with DPBS (Gibco) with 0.01% Tween (Research Products International Corp.), and eluted with SDS loading buffer.
Cells were plated ([…]/10 cm2) and treated with 10 μM gingolic or anacardic acid (Sigma) for 2-4 days and collected for qPCR, Western blot and FACS analysis.
FACS analysis was performed as previously described (Roederer and Hardy, 2001).

Test [2] relates to pancreatic carcinoma Panc-1 cell line. Briefly: CD44 Western blot in Panc-1 pancreatic carcinoma. In kind it is cell-based. Conditions: Panc-1, 96 h treatment; FIG. 18. How it is done:
FIG. 18: Western blot, CD44 downregulation, Panc-1 pancreatic carcinoma was treated with ginkgolic and anacardic acids, 96 h.
as §1

Each structure is given as a SMILES string.

As to `CCCCCC/C=C\CCCCCCCc1cccc(O)c1C(=O)O` [GA, (Z)-6-(Pentadec-8-enyl)-2-hydroxybenzoic acid], the “stem cell marker CD44 (Western blot)” value in test [1] is “downregulation”. Further, in the test on BT-20 cells, the “ability to repress CD44 expression with knockdown of TFAP2A” value is listed as “completely eliminated”, the “CD44+/CD24-/low population by FACS analysis” value is on record as “significantly reduced” and the “CD44 expression by Western blot” value was “inhibited”. The “stem cell marker CD44 (Western blot)” value in test [2] is on record as “downregulation”.

With `CCCCCCCCCCCCCCCc1cccc(O)c1C(=O)O` [AA, Anacardic acid (C15:0)], in test [1], the “stem cell marker CD44 (Western blot)” value is recorded as “downregulation”. In the test on BT-20 cells, the “ability to repress CD44 expression with knockdown of TFAP2A” value is “completely eliminated”, the “CD44+/CD24-/low population by FACS analysis” value is “significantly reduced” and the “CD44 expression by Western blot” value is on record as “inhibited”. The “stem cell marker CD44 (Western blot)” value in test [2] was “downregulation”.
